Eleven compounds from patent US9610263B2, “Method of modulating membrane potential of a cell” (VERSITECH LIMITED, priority 2007, dated 2017) can be followed below.

“Also recorded” adds a separate entry of the source.

What is called melting point is the temperature of the solid-liquid transition. By IC50 is commonly meant the concentration that inhibits the measured activity by half.

Data set [1] has as its system Madin-Darby canine kidney (MDCK) cells. Nature of the data set: Membrane potential of living cells with bis-oxonol (DiBAC4(3)). The data set is classed as cell-based. The source says: To determine the potential of Example 2 for application in biological and medicinal science, Example 2 was investigated for incorporating into the plasma membranes of living cells and, thereby, modulating their membrane potentials by increasing chloride permeability of the cell membranes. A potential-sensitive dye his-oxonal was used to measure the relative changes in membrane potential of the Madin-Darby canine kidney (MDCK) cells, a model for the renal distal tubule and collecting duct that secrete chloride ions. An increase in fluorescence of bis-oxonal indicated cell depolarization while a decrease indicated hyperpolarization. […] This depolarization effect could be ascribed to that the chloride equilibrium potential (ECl) was higher than the resting membrane potential in MDCK cells. Thus, the opening of chloride channels shifted the membrane potential towards the ECl.
In summary, FIG. 14A-E show the effects of adding different substances, including Example 2, on the membrane potential of Madin-Darby canine kidney (MDCK) cells. Membrane potentials of MDCK cells were monitored by the changes of emission intensity of the potential-sensitive dye bis-oxonol (DiBAC4(3)). The increase in the fluorescence intensity indicates depolarization. […] Each point in FIG. 14A-E represents the mean±s.e. (n=20-80 cells in 4-6 experiments).

A short description of data set [2]: Membrane potential of valinomycin-polarized liposomes (safranin O). Type of data set: biochemical. The following applies: KCl-loaded EYPC-liposomes in KCl/Na2SO4; external addition alone. From the text: The ability of Example 2 to modulate membrane potentials in polarized liposomes was investigated. […] This depolarization process induced by Example 2 may be attributed to the formation of chloride channels by Example 2 that mediate chloride ions flow out of the polarized liposomes to balance the electrostatic potential established by valinomycin.

For data set [3], the system named is mouse thoracic aortic rings. Nature of the data set: Vasorelaxation of aortic rings preconstricted by high-K solution (organ bath). The note with it: aortic rings preconstricted by high-K (60 mM K+) solution, n=5, read-out: half-maximal relaxation value IC50. The source says:
Example 52 was for investigating whether Example 2 could promote vasorelaxation during vasoconstriction induced by depolarization. Mouse thoracic aortic rings was mounted in an organ bath apparatus and measured their muscular activity.

Compound `CC(C)CNC(=O)[C@@H](CC(C)C)ONC(=O)c1ccccc1` [Example 6] had a melting point of 130 to 132 °C.
Turning to `O=C(O)c1ccccc1Nc1ccccc1` [DPC, diphenylamine-2-carboxylate], the “membrane potential (bis-oxonol fluorescence)” value in data set [1] (1 mM added alone) is on record as “hyperpolarization of the membrane potential”. The “depolarization induced by low-chloride extracellular solution” value in data set [1] (60 mM Cl- Ringer's solution in presence of 1 mM blocker) was “entirely inhibited the depolarization effect; also recorded: did not result in depolarization”.
For the compound `CC(C)[C@@H]1NC(=O)[C@H](C)OC(=O)[C@@H](C(C)C)NC(=O)[C@@H](C(C)C)OC(=O)[C@H](C(C)C)NC(=O)[C@H](C)OC(=O)[C@@H](C(C)C)NC(=O)[C@@H](C(C)C)OC(=O)[C@H](C(C)C)NC(=O)[C@H](C)OC(=O)[C@@H](C(C)C)NC(=O)[C@@H](C(C)C)OC1=O` [valinomycin], in data set [2], the “membrane potential of liposomes” value is “polarized the liposome”.
`CC(C)CNC(=O)[C@@H](CO)ONC(=O)c1cccc(C(=O)NO[C@H](CO)C(=O)NCC(C)C)c1` [Example 36] gave a melting point of 174 to 176 °C.
Consider `CC(C)CNC(=O)[C@@H](CC(C)C)ONC(=O)c1cccc(C(=O)NO[C@H](CC(C)C)C(=O)NCC(C)C)c1` [Example 2], for which, in data set [3], the half-maximal inhibitory concentration (IC50) is 8.42 ± 0.18 µM.
`CC(C)C[C@@H](ONC(=O)c1cccc(C(=O)NO[C@H](CC(C)C)C(=O)OC(C)(C)C)c1)C(=O)OC(C)(C)C` [Example 1] returned a melting point of 57 to 59 °C.
On the same count and under the same terms, the value for `CC(C)CNC(=O)[C@H](CC(C)C)OC(=O)c1cccc(C(=O)O[C@@H](CC(C)C)C(=O)NCC(C)C)c1` [Example 9] was 137 to 139 °C.
In turn, `CC(C)CNC(=O)[C@@H](Cc1ccccc1)ONC(=O)c1cccc(C(=O)NO[C@H](Cc2ccccc2)C(=O)NCC(C)C)c1` [Example 37] gave a melting point of 145 to 148 °C.
Compound `CC(C)CNC(=O)[C@H](CC(C)C)NC(=O)c1cccc(C(=O)N[C@@H](CC(C)C)C(=O)NCC(C)C)c1` [Example 8] yielded a melting point of 240 to 242 °C.
Same read-out and setting: the value for `CCCCCCCCCCCCCCCCCCNC(=O)[C@@H](CC(C)C)ONC(=O)c1cccc(C(=O)NO[C@H](CC(C)C)C(=O)NCCCCCCCCCCCCCCCCCC)c1` [Example 5] was 88 to 90 °C.
`CC(C)CNC(=O)[C@@H](CC(C)C)ONC(=O)c1cccc(C(=O)NO[C@H](CC(C)C)C(=O)NCC(C)C)n1` [Example 7] gave a melting point of 175 to 177 °C.
